Reference: patent US8895733B2 (Novartis AG, priority 2010, dated 2014)

Biological target: T1, Nav 1.7 (Homo sapiens, UniProt Q15858)
T1 construct: expressed in transfected cells
Assay: Whole-cell voltage clamp electrophysiology, automated patch clamp (marker c in Table of Examples)
Format: cell-based
Conditions: marker c = Automated patch clamp data; read-out: Nav 1.7 activity
How it was run: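 Human NaV1.7 currents were recorded by whole-cell automated patch clamp, on IonWorks Quattro or another automated platform, typically in perforated-patch configuration. The stimulus protocol was designed to probe block mainly of the inactivated state, with a typical sweep stepping from about −65 mV holding to −10 mV, then −100 mV.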

T1 sequence (Q15858 whole entry): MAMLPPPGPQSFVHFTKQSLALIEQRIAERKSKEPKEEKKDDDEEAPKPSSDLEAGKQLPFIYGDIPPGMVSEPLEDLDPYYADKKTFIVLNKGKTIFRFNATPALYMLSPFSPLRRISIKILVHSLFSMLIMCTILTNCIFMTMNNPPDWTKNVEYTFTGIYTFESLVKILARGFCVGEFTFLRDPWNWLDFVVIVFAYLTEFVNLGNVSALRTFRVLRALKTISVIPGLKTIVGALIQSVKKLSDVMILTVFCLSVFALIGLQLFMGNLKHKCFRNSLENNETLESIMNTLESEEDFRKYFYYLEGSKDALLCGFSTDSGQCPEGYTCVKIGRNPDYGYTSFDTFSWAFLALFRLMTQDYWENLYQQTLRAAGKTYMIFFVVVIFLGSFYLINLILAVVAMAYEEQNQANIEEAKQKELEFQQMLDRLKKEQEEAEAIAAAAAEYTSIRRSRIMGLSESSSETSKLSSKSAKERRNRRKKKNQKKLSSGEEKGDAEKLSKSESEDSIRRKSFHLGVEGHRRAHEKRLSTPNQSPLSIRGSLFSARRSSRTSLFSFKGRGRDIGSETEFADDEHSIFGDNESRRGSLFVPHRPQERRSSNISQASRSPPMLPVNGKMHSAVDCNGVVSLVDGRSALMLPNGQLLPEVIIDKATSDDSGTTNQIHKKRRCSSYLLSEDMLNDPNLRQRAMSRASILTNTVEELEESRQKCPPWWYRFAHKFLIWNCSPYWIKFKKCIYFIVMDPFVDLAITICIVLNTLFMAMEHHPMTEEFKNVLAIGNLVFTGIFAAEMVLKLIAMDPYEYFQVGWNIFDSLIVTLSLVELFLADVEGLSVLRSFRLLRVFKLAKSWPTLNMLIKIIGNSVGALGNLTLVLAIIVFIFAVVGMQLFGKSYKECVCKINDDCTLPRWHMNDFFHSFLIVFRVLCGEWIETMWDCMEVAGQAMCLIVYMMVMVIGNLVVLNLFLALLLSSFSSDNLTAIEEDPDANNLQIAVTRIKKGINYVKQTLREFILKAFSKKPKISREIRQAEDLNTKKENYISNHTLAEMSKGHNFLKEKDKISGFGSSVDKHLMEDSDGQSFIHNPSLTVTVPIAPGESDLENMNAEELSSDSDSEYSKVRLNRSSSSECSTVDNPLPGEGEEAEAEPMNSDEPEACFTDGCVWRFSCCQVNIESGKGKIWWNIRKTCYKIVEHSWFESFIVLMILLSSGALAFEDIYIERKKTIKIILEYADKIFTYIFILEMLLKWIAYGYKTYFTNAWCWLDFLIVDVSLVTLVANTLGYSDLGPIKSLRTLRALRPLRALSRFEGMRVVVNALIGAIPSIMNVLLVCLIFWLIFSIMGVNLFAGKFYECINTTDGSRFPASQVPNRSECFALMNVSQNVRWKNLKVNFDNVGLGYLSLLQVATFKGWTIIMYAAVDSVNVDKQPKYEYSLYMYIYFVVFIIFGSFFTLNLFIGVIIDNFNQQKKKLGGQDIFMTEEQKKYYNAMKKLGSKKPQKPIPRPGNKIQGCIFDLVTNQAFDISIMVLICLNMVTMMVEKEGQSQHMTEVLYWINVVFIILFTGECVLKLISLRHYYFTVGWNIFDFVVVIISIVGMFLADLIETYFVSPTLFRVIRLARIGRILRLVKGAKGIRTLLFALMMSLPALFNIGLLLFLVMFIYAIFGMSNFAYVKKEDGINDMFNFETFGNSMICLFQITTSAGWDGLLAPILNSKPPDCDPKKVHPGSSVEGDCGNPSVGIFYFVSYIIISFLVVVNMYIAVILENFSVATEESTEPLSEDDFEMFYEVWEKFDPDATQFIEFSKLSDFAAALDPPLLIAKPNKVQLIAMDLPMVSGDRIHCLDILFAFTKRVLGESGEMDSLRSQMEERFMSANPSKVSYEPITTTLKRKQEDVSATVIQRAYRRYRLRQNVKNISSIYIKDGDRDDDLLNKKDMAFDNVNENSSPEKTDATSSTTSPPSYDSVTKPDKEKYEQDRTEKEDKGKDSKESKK

CN(c1ccccc1)c1nc(N)nc(-c2noc(-c3ccc(COCC4CC4)nc3)n2)n1 [Example 208, 6-(5-{6-[(cyclopropylmethoxy)methyl]pyridin-3-yl}-1,2,4-oxadiazol-3-yl)-2-N-methyl-2-N-phenyl-1,3,5-triazine-2,4-diamine]
IC50: 113 nM

CC(OCC(F)(F)F)c1ccc(-c2nc(-c3nc(N)nc(N(C)c4ccccc4)n3)no2)cn1 (centres unmarked) [Example 209, 2-N-methyl-2-N-phenyl-6-(5-{6-[1-(2,2,2-trifluoroethoxy)ethyl]pyridin-3-yl}-1,2,4-oxadiazol-3-yl)-1,3,5-triazine-2,4-diamine]
IC50: 74 nM

CC(OCc1ccc(-c2nc(-c3nc(N)nc(Nc4ccccc4)n3)no2)cn1)C(F)(F)F (centres unmarked) [Example 210, 2-N-phenyl-6-[5-(6-{[(1,1,1-trifluoropropan-2-yl)oxy]methyl}pyridin-3-yl)-1,2,4-oxadiazol-3-yl]-1,3,5-triazine-2,4-diamine]
IC50: 33 nM

Nc1nc(Nc2ccccc2)nc(-c2noc(-c3ccc(COCC4CC4)nc3)n2)n1 [Example 211, 6-(5-{6-[(cyclopropylmethoxy)methyl]pyridin-3-yl}-1,2,4-oxadiazol-3-yl)-2-N-phenyl-1,3,5-triazine-2,4-diamine]
IC50: 44 nM

CC(OCC(F)(F)F)c1ccc(-c2nc(-c3nc(N)nc(Nc4ccccc4)n3)no2)cn1 (centres unmarked) [Example 212, 2-N-phenyl-6-(5-{6-[1-(2,2,2-trifluoroethoxy)ethyl]pyridin-3-yl}-1,2,4-oxadiazol-3-yl)-1,3,5-triazine-2,4-diamine]
IC50: 211 nM

Nc1nc(Nc2ccccc2)nc(-c2noc(-c3ccc(COC4CCC4)nc3)n2)n1 [Example 213, 6-{5-[6-(cyclobutoxymethyl)pyridin-3-yl]-1,2,4-oxadiazol-3-yl}-2-N-phenyl-1,3,5-triazine-2,4-diamine]
IC50: 67 nM

Nc1nc(Nc2ccccc2)nc(-c2noc(N3CCC(COCC4CC4)CC3)n2)n1 [Example 214, 6-(5-{4-[(cyclopropylmethoxy)methyl]piperidin-1-yl}-1,2,4-oxadiazol-3-yl)-2-N-phenyl-1,3,5-triazine-2,4-diamine]
IC50: 233 nM

Nc1nc(Nc2ccccc2)nc(-c2noc(N3CCC(COC4CCC4)CC3)n2)n1 [Example 215, 6-{5-[4-(cyclobutoxymethyl)piperidin-1-yl]-1,2,4-oxadiazol-3-yl}-2-N-phenyl-1,3,5-triazine-2,4-diamine]
IC50: 280 nM

CN(c1ccccc1)c1nc(N)nc(-c2noc(N3CCC(COC4CCC4)CC3)n2)n1 [Example 217, 6-{5-[4-(cyclobutoxymethyl)piperidin-1-yl]-1,2,4-oxadiazol-3-yl}-2-N-methyl-2-N-phenyl-1,3,5-triazine-2,4-diamine]
IC50: 415 nM

Nc1nc(Nc2ccccc2)nc(-c2noc(C(=O)NC3CCCC3)n2)n1 [Example 218, 3-[4-amino-6-(phenylamino)-1,3,5-triazin-2-yl]-N-cyclopentyl-1,2,4-oxadiazole-5-carboxamide]
IC50: 2510 nM

Nc1nc(Nc2cccc(F)c2)nc(-c2noc(C(=O)NC3CCCC3)n2)n1 [Example 219, 3-{4-amino-6-[(3-fluorophenyl)amino]-1,3,5-triazin-2-yl}-N-cyclopentyl-1,2,4-oxadiazole-5-carboxamide]
IC50: 1960 nM

Nc1nc(Nc2ccccc2)nc(-c2noc(C(=O)N3CCCC3)n2)n1 [Example 220, 2-N-phenyl-6-{5-[(pyrrolidin-1 - yl)carbonyl]-1,2,4-oxadiazol-3-yl}-1,3,5-triazine-2,4-diamine]
IC50: 833 nM

Nc1nc(Nc2ccccc2)nc(-c2noc(N3CCCCC3)n2)n1 [Example 221, 2-N-Phenyl-6-[5-(piperidin-1-yl)-1,2,4-oxadiazol-3-yl]-1,3,5-triazine-2,4-diamine]
IC50: 729 nM

NC(=O)c1nc(-c2nc(N)nc(Nc3ccccc3)n2)no1 [Example 222, 3-[4-amino-6-(phenylamino)-1,3,5-triazin-2-yl]-1,2,4-oxadiazole-5-carboxamide]
IC50: 7710 nM

NC(=O)c1nc(-c2nc(N)nc(Nc3cccc(F)c3)n2)no1 [Example 223, 3-{4-amino-6-[(3-fluorophenyl)amino]-1,3,5-triazin-2-yl}-1,2,4-oxadiazole-5-carboxamide]
IC50: 6500 nM

Nc1nc(Nc2cccc(F)c2)nc(-c2noc(C(=O)NC3CCC3)n2)n1 [Example 224, 3-{4-amino-6-[(3-fluorophenyl)amino]-1,3,5-triazin-2-yl}-N-cyclobutyl-1,2,4-oxadiazole-5-carboxamide]
IC50: 1520 nM

Nc1nc(Nc2cccc(F)c2)nc(-c2noc(C(=O)NC3Cc4ccccc4C3)n2)n1 [Example 225, 3-{4-amino-6-[(3-fluorophenyl)amino]-1,3,5-triazin-2-yl}-N-(2,3-dihydro-1H-inden-2-yl)-1,2,4-oxadiazole-5-carboxamide]
IC50: 776 nM

Nc1nc(Nc2cccc(F)c2)nc(-c2noc(C(=O)NC3CCc4ccccc43)n2)n1 (centres unmarked) [Example 226, 3-{4-amino-6-[(3-fluorophenyl)amino]-1,3,5-triazin-2-yl}-N-(2,3-dihydro-1H-inden-1-yl)-1,2,4-oxadiazole-5-carboxamide]
IC50: 3420 nM

Nc1nc(Nc2cccc(F)c2)nc(-c2noc(C(=O)N3CCCC3)n2)n1 [Example 227, 2-N-(3-fluorophenyl)-6-{5-[(pyrrolidin-1-yl)carbonyl]-1,2,4-oxadiazol-3-yl}-1,3,5-triazine-2,4-diamine]
IC50: 241 nM

Nc1nc(Nc2ccccc2)nc(-c2noc(C(=O)NC3CCC3)n2)n1 [Example 228, 3-[4-amino-6-(phenylamino)-1,3,5-triazin-2-yl]-N-cyclobutyl-1,2,4-oxadiazole-5-carboxamide]
IC50: 401 nM

Nc1nc(Nc2ccccc2)nc(-c2noc(C(=O)NC3Cc4ccccc4C3)n2)n1 [Example 229, 3-[4-amino-6-(phenylamino)-1,3,5-triazin-2-yl]-N-(2,3-dihydro-1H-inden-2-yl)-1,2,4-oxadiazole-5-carboxamide]
IC50: 9190 nM

Nc1nc(Nc2ccccc2)nc(-c2noc(C(=O)N3Cc4ccccc4C3)n2)n1 [Example 230, 6-{5-[(2,3-dihydro-1H-isoindol-2-yl)carbonyl]-1,2,4-oxadiazol-3-yl}-2-N-phenyl-1,3,5-triazine-2,4-diamine]
IC50: 9250 nM

Nc1nc(Nc2ccccc2)nc(-c2noc(NC3CCCC3)n2)n1 [Example 231, 6-[5-(cyclopentylamino)-1,2,4-oxadiazol-3-yl]-2-N-phenyl-1,3,5-triazine-2,4-diamine]
IC50: 3210 nM

Nc1nc(Nc2cccc(F)c2)nc(-c2noc(C(=O)N3CCOCC3)n2)n1 [Example 232, 2-N-(3-fluorophenyl)-6-{5-[(morpholin-4-yl)carbonyl]-1,2,4-oxadiazol-3-yl}-1,3,5-triazine-2,4-diamine]
IC50: 9330 nM

Nc1nc(Nc2cccc(F)c2)nc(-c2noc(C(=O)N[C@@H]3CCOC3)n2)n1 [Example 233, 3-{4-amino-6-[(3-fluorophenyl)amino]-1,3,5-triazin-2-yl}-N-[(3R)-oxolan-3-yl]-1,2,4-oxadiazole-5-carboxamide]
IC50: 5660 nM

CC(C)NC(=O)c1nc(-c2nc(N)nc(Nc3cccc(F)c3)n2)no1 [Example 234, 3-{4-amino-6-[(3-fluorophenyl)amino]-1,3,5-triazin-2-yl}-N-(propan-2-yl)-1,2,4-oxadiazole-5-carboxamide]
IC50: 1270 nM
